Activity calls are given as the source filed them. No rule for the calls is given here.

This assay relates to H9c2 cells, DAPI nuclear count (cytotoxicity), overnight. Description: DAPI-stained nuclei loss in H9c2 cells – cell-based, DAPI fluorescence, cytotoxicity control for triacylglycerol accumulation inhibitor project, SAR follow-up (AID 743160).
In the case of `CN(C)CCCn1c(SCC(=O)Nc2nc(-c3cccc(Br)c3)cs2)nc2ccccc2c1=O`, the IC50 was 27.1 µM (inactive).
To `O=C(CSc1nc2ccc(Nc3nc(N4CCOCC4)nc(N4CCOCC4)n3)cc2s1)Nc1ccccc1Cl` belongs 27.8 µM (inactive).
To `CCOc1ccccc1NC(=O)c1cccc(NC(=O)c2ccco2)c1` belongs 23.2 µM (inactive); to `O=C(Nc1cccc(-c2nc3ccccc3[nH]2)c1)c1cccc2c1C(=O)N(CCc1ccccc1)C2`, > 50 µM (inactive).
As for `CCn1c(SCC(=O)Nc2nc(-c3ccc(C)cc3)cs2)nnc1-c1ccccc1O`, the IC50 is 8.1 µM (inactive).
With `Cc1ccc(-c2csc(NC(=O)CSc3nc4ccccc4c(=O)n3CCCN(C)C)n2)cc1`, the IC50 is > 50 µM (inactive).
Then `Cc1cccc2c(C(=O)N3CCN(c4ccccc4)CC3)cc(-c3ccncc3)nc12`, with > 50 µM (inactive); and `COCCn1cnc2cccc(C(=O)Nc3cccc(-c4nc5ccccc5[nH]4)c3)c2c1=O`, with > 50 µM (inactive); and `O=C(Nc1cccc2ncccc12)c1ccc(Cl)cc1`, with > 50 µM (inactive).
Then `O=[N+]([O-])c1ccc(Nc2nc(NC3CCCCC3)nc(N3CCCC3)n2)cc1`, with 11 µM (inactive).
As to `COCCN1Cc2cccc(C(=O)Nc3nc4ccccc4[nH]3)c2C1=O`, the IC50 was > 50 µM (inactive).
As to `O=C(CSc1nc2ccc(Nc3nc(N4CCOCC4)nc(N4CCOCC4)n3)cc2s1)NCc1ccco1`, the IC50 was > 50 µM (inactive).
To `CCOc1ccc(NC(=O)CN(C)C(=O)c2cc(-c3ccc(OC)cc3)nc3ccccc23)cc1OCC` belongs > 50 µM (inactive).
With `CCCC(=O)Nc1nc2ccc(NC(=O)c3ccccc3F)cc2s1`, the IC50 is > 50 µM (inactive).
As to `CCN(CC)S(=O)(=O)c1ccc(N2CCOCC2)c(NC(=O)c2[nH]c(C)c(C(C)=O)c2C)c1`, the IC50 is > 50 µM (inactive).
For the compound `CCOC(=O)c1cc(-c2ccccc2)sc1NC(=O)C(C)N1C(=O)NC(C)(c2ccc(Cl)cc2)C1=O` (stereo unspecified), the IC50 was > 50 µM (inactive).
Take `O=C(Nc1cccc(-c2nc3ccccc3[nH]2)c1)c1cccc2c1C(=O)N(CCN1CCOCC1)C2`: the IC50 is > 50 µM (inactive).
With `COc1ccccc1CCN1Cc2cccc(C(=O)Nc3cccc(-c4nc5ccccc5[nH]4)c3)c2C1=O`, the IC50 is > 50 µM (inactive).
Turning to `COCCN1Cc2cccc(C(=O)Nc3cccc(-c4nc5ccc(Cl)cc5[nH]4)c3)c2C1=O`, the IC50 is > 50 µM (inactive).
As to `CCCC(=O)Nc1nc2ccc(NC(=O)c3c(F)c(F)c(OC)c(F)c3F)cc2s1`, the IC50 is > 50 µM (inactive).
On to `Cc1ccc(Nc2nc(OC(C(F)(F)F)C(F)(F)F)nc(N3CCOCC3)n2)cc1`, for which the IC50 was > 50 µM (inactive).
Take `O=C(Nc1cccc(-c2nc3ccccc3[nH]2)c1)c1cccc2c1C(=O)N(CCOc1ccccc1)C2`: the IC50 is > 50 µM (inactive).
Regarding `Cc1ccc(-c2nc(NC(=O)c3cc(C(C)(C)C)nn3C)sc2C)cc1Cl`, the IC50 is > 50 µM (inactive).
On to `Cc1cc(C)c2nc(-c3ccncc3)cc(C(=O)N3CCN(Cc4ccccc4Cl)CC3)c2c1`, for which the IC50 was 23.6 µM (inactive).
Take `CCOC(=O)c1cccc(NC(=O)c2cccc3c2C(=O)N(CCOC)C3)c1`: the IC50 is > 50 µM (inactive).
For `COCCN1Cc2cccc(C(=O)Nc3cccnc3)c2C1=O`, the IC50 was > 50 µM (inactive).
Then `O=C(CCC(=O)N1CCOc2ccc(Cl)cc21)NCCCN1CCC(Cc2ccccc2)CC1`, with 13.5 µM (inactive).
Then `COCCN1Cc2cccc(C(=O)Nc3cccc(-c4nc5ccc(C)cc5[nH]4)c3)c2C1=O`, with > 50 µM (inactive); and `COc1cccc(-c2cc(C(=O)Nc3ccc(N(C)C(C)=O)cc3)c3cc(Br)ccc3n2)c1`, with > 50 µM (inactive); and `Cc1ccccc1NC(=O)CSc1nc2ccc(Nc3nc(N4CCOCC4)nc(N4CCOCC4)n3)cc2s1`, with 40 µM (inactive).
On to `O=C(Nc1cccc(-c2nc3ccccc3[nH]2)c1)c1cccc2c1C(=O)N(CC1CC1)C2`, for which the IC50 is > 50 µM (inactive).
On to `COCCN1Cc2cccc(C(=O)Nc3cccc(C(=O)Nc4ccccc4)c3)c2C1=O`, for which the IC50 was > 50 µM (inactive).
With `COCCCN1Cc2cccc(C(=O)Nc3cccc(-c4nc5ccccc5[nH]4)c3)c2C1=O`, the IC50 is > 50 µM (inactive).
Turning to `CSCCCN1Cc2cccc(C(=O)Nc3cccc(-c4nc5ccccc5[nH]4)c3)c2C1=O`, the IC50 is > 50 µM (inactive).
As for `CCOCCN1Cc2cccc(C(=O)Nc3cccc(-c4nc5ccccc5[nH]4)c3)c2C1=O`, the IC50 was > 50 µM (inactive).
To `O=C1COc2ccc(C(=O)CSc3nc4ccccc4c(=O)n3-c3ccc(Cl)c(Cl)c3)cc2N1` belongs 7.69 µM (inactive).
Then `COc1ccc(CCN2Cc3cccc(C(=O)Nc4cccc(-c5nc6ccccc6[nH]5)c4)c3C2=O)cc1OC`, with > 50 µM (inactive).
`CCC(C)(C)NC(=O)C(c1ccc(C)cc1)N(Cc1ccco1)C(=O)CCC(=O)Nc1nccs1` (stereo unspecified): the IC50 was > 50 µM (inactive).
In the case of `COCCN1Cc2cccc(C(=O)NCc3cccc(N(C)C)c3)c2C1=O`, the IC50 was > 50 µM (inactive).
With `COCCN1Cc2cccc(C(=O)Nc3cccc(-c4nc5ccc(F)cc5[nH]4)c3)c2C1=O`, the IC50 was > 50 µM (inactive).
As for `CCCCN1Cc2cccc(C(=O)Nc3cccc(-c4nc5ccccc5[nH]4)c3)c2C1=O`, the IC50 is > 50 µM (inactive).
`CCC(C)(C)NC(=O)C(c1ccc(OC)cc1)N(Cc1cccs1)C(=O)CCC(=O)Nc1cc(C)on1` (stereo unspecified): the IC50 is > 50 µM (inactive).
`COCCN1Cc2cccc(C(=O)Nc3cccc(-c4nc5ccc(C(F)(F)F)cc5[nH]4)c3)c2C1=O`: the IC50 was > 50 µM (inactive).
Take `COCCN1Cc2cccc(C(=O)Nc3cccc(C(=O)Nc4ccccc4OC)c3)c2C1=O`: the IC50 was > 50 µM (inactive).
In the case of `CCCCSc1nc2ccc(Nc3nc(N4CCOCC4)nc(N4CCOCC4)n3)cc2s1`, the IC50 is > 50 µM (inactive).
`COCCN1Cc2cccc(C(=O)Nc3nc4ccccc4n3C)c2C1=O`: the IC50 was > 50 µM (inactive).
For `Cc1ccccc1OCCNc1cc(N2CC(C)NC(C)C2)ccc1[N+](=O)[O-]` (stereo unspecified), the IC50 is > 50 µM (inactive).
Then `COc1cc(NC(=O)c2cc([N+](=O)[O-])ccc2NC(=O)CN2CCN(c3ccccn3)CC2)cc(OC)c1`, with > 50 µM (inactive); and `COCCN1Cc2cccc(C(=O)Nc3cccc(-c4nc5ccccc5[nH]4)c3)c2C1=O`, with > 50 µM (inactive); and `COc1cc2c(cc1OC)C(C)N(C(=O)c1cc3c(C)cc(C)cc3[nH]1)CC2` (stereo unspecified), with > 50 µM (inactive).
`Cc1ccccc1NC(=O)CSc1nc(Nc2ccccc2)nc(N2CCOCC2)n1`: the IC50 is > 50 µM (inactive).
